# Laboratory results as given in patent US20160346289A1, “Fixed-Dose Combinations of Antiviral Compounds” (MERCK SHARP & DOHME CORP., priority 2014, published 2016).
# Assays:
# [1] = Aqueous / pH-dependent solubility; format: physicochemical; details: between pH 1-3
# [2] = Human pharmacokinetics of Formulation 3 with and without 20 mg famotidine; format: in vivo; details: conventional formulation of Compound II
# Description: The oral absorption obtained from Formulation 3 with and without pH-modifying medications (20 mg famotidine) was evaluated as part of human clinical study. For the treatment with famotidine, single oral doses of 20 mg famotidine (1×20 mg tablet) were administered on the previous evening and 2 hours prior to a single oral dose of Formulation 3.
# [3] = Human pharmacokinetics of Formulation 4 with and without famotidine, co-dosed with Formulation 1; format: in vivo; details: Compound II from Formulation 4 co-dosed with Formulation 1; healthy subjects
# Description: For the treatment with famotidine, single oral doses of 20 mg famotidine (1×20 mg tablet) was administered 10 hours and 2 hours prior to an oral dose of Formulation 1 and Formulation 4.
smiles,measurement,setting,value
"COC(=O)N[C@H](C(=O)N1CCC[C@H]1c1nc(-c2ccc3c(c2)O[C@@H](c2ccccc2)n2c-3cc3cc(-c4c[nH]c([C@@H]5CCCN5C(=O)[C@@H](NC(=O)OC)C(C)C)n4)ccc32)c[nH]1)C(C)C [Compound II, dimethyl N,N′-([(6S)-6-phenylindolo[1,2-c][1,3]benzoxazine-3,10-diyl]bis{1H-imidazole-5,2-diyl-(2S)-pyrrolidine-2,1-diyl[(2S)-3-methyl-1-oxobutane-1,2-diyl]})dicarbamate]",pH-dependent solubility profile,[1],sharp pH-dependent solubility profile
same,absorption upon co-administration with a pH-raising medication,[2],poor absorption
same,exposure following famotidine versus without famotidine,[3],comparable
